Assay results taken from article PMC8198214, “Synthesis and Biological Evaluation of Spirocyclic Chromane Derivatives as a Potential Treatment of Prostate Cancer” (Molecules, 2021).
Read-outs that look alike come from different tables or passages of the source.

Tests used:
[1] = Pharmacokinetics in male Balb/C mice (IV and PO); format: in vivo; settings: mouse, plasma; for clearance: n = 3, read-out: CL (clearance) (converted); for Vd: n = 3, read-out: V ss (0–24 h) (volume of distribution at steady state); for bioavailability: PO. 10 mg/kg vs IV. 1 mg/kg, n = 3, read-out: F (oral bioavailability); for Cmax: n = 3, Table 3, read-out: Cmax (maximum concentration observed)
Experimental: Pharmacokinetic experiments of test compounds were performed in male Balb/C mice similarly to our previous work. The mice were randomly assigned to two groups and were administrated the test compound orally and intravenously, respectively. The test compounds were prepared into 0.5 mg/mL oral solution with 10%PG, 10% ethanol, 10% solutol and 70% normal saline, or 0.1 mg/mL injection solution with 2% PG, 2% ethanol, 2% solutol and 94% normal saline. After intravenous or oral administration, blood was collected from the orbital venous plexus into heparinized EP tube (0.6 mL) at 5, 15, 30 min, 1, 2, 6, 10, and 24 h, temporarily placed on crushed ice. Certain processing was performed on blood samples and testing samples were sent to LC-MS/MS for analysis.

22Rv1 cells = assay: 22Rv1 cell viability (CCK-8) antiproliferation assay; format: cell-based, human; settings: for IC50: Homo sapiens, Table 2, 22Rv1 cells, means of two independent experiments (n = 2)
Experimental: The 22Rv1 prostate cancer cell line in this study was purchased from KeyGEN Biotech Co. Ltd. (Nanjing, Jiangsu, China ). The cells were cultured in RPMI 1640 medium and maintained at 37 °C in a 5% CO2 incubator. For the cell viability assay, the cell slurry was diluted to required volume at a density of 80,000 cells/mL. Then, 100 μL the cell slurry was seeded in each well of the 96-well plate. The cells were incubated for 72 h at 37 °C, 5% CO2 under humidified condition. The reference and test compounds solution (200×) were prepared with DMSO and were diluted from 200× to 1× with culture medium (RPMI 1640 medium without phenol red and containing 10% fetal calf serum, penicillin (100U/mL), streptomycin (100 μg/mL) and 0.1 nM DHT). The previous culture medium was removed and 200 μL/well of the compound solution (1×) was added to assay plate (final conc: 1×). Then the cells were incubated at 37 °C, 5% CO2 under humidified conditions. 5 Days later, the CCK-8 assay reagent was equilibrated at room temperature for 30 min prior to use. CCK-8 was mixed with fresh medium at a ratio of 1:10 and 100 μL of the diluted CCK8 reagent was added to each well and the plates were incubated for 4.5 h at 37 °C. Finally, absorbance value (OD value) was read on plate reader. GraphPad Prism v5.0 software was used to process data for IC50.

[2] = IV. 1 mg/kg, n = 3, read-out: AUC(0–24h)
[3] = IV. 1 mg/kg, n = 3, read-out: T1/2 (half-life) (converted)
[4] = PO. 10 mg/kg, n = 3, Table 3, read-out: AUC (0–24 h)
[5] = PO. 10 mg/kg, n = 3, Table 3, read-out: T1/2 (converted)

SMILES | AUC(0-t) [1, 2] | clearance ([1]; IV. 1 mg/kg) | half-life [1, 3] | Vd ([1]; IV. 1 mg/kg) | bioavailability [1] | AUC(0-t) [1, 4] | Cmax ([1]; PO. 10 mg/kg) | half-life [1, 5] | IC50 (22Rv1 cells) | fold more potency than A-485 (22Rv1 cells; 22Rv1 cell antiproliferation)
CNC(=O)Cn1cc(-c2ccc3c(c2)CCC32OC(=O)N(CC(=O)N(Cc3ccc(F)cc3)[C@H]3CCc4cccnc43)C2=O)cn1 (stereo partly drawn) [B8, N-((S)-6,7-Dihydro-5H-cyclopenta[b]pyridin-7-yl)-N-(4-fluorobenzyl)-2-(5-(1-(2-(methylamino)-2-oxoethyl)-1H-pyrazol-4-yl)-2′,4′-dioxo-2,3-dihydrospiro[indene-1,5′-oxazolidin]-3′-yl)acetamide] | 766 ± 71.2 ng·h/mL | 18.3 mL/min/kg | 17 ± 4.9 h | 13.2 ± 4.2 L/kg | 21.6 ± 3.8% | 1660 ± 294 ng·h/mL | 878 ± 94.3 ng/mL | 23.9 ± 3.6 h | 0.153 µM | –
CNC(=O)Cn1cc(-c2ccc3c(c2)CCC32OC(=O)N(CC(=O)N(Cc3ccc(F)cc3)[C@H]3CCOc4ccccc43)C2=O)cn1 (stereo partly drawn) [B16, N-((S)-chroman-4-yl)-N-(4-fluorobenzyl)-2-(5-(1-(2-(methylamino)-2-oxoethyl)-1H-pyrazol-4-yl)-2′,4′-dioxo-2,3-dihydrospiro[indene-1,5′-oxazolidin]-3′-yl) acetamide] | 536 ± 18.1 ng·h/mL | 30 mL/min/kg | 0.5 h | 1 ± 0.1 L/kg | 33.2 ± 3% | 1780 ± 158 ng·h/mL | 759 ± 76.5 ng/mL | 1.6 ± 0.3 h | 0.096 µM | 2 fold
